Measurements taken from ChEMBL document CHEMBL1151757, “Synthesis, radiosynthesis, and biological evaluation of fluorine-18-labeled 2beta-carbo(fluoroalkoxy)-3beta-(3'-((Z)-2-haloethenyl)phenyl)nortropanes: candidate radioligands for in vivo imaging of the serotonin transporter with positron emission tomography” (J Med Chem, 2008).

What was measured:
[1] = Ratio of drug uptake in pons to cerebellum in anesthetized cynomolgus monkey after 35 mins postinjection; format: ADME, organism-based, Macaca fascicularis; settings: in vivo
[2] = Ratio of drug uptake in pons to cerebellum in anesthetized cynomolgus monkey after 85 mins postinjection; format: ADME, organism-based, Macaca fascicularis; settings: in vivo
[3] = Ratio of drug uptake in pons to cerebellum in anesthetized cynomolgus monkey after 125 mins postinjection; format: ADME, organism-based, Macaca fascicularis; settings: in vivo
[4] = Ratio of drug uptake in pons to cerebellum in anesthetized cynomolgus monkey after 185 mins postinjection; format: ADME, organism-based, Macaca fascicularis; settings: in vivo
[5] = Ratio of drug uptake in medulla to cerebellum in anesthetized cynomolgus monkey after 65 mins postinjection; format: ADME, organism-based, Macaca fascicularis; settings: in vivo
[6] = Drug uptake in anesthetized cynomolgus monkey brain occipital lobe after 2.5 mins postinjection; format: ADME, organism-based, Macaca fascicularis; settings: in vivo
[7] = Drug uptake in anesthetized cynomolgus monkey brain occipital lobe after 3.5 mins postinjection; format: ADME, organism-based, Macaca fascicularis; settings: in vivo
[8] = Drug uptake in anesthetized cynomolgus monkey brain frontal lobe after 2.5 mins postinjection; format: ADME, organism-based, Macaca fascicularis; settings: in vivo
[9] = Drug uptake in anesthetized cynomolgus monkey brain frontal lobe after 3.5 mins postinjection; format: ADME, organism-based, Macaca fascicularis; settings: in vivo
[10] = Drug uptake in anesthetized cynomolgus monkey brain frontal lobe after 6.5 mins postinjection; format: ADME, organism-based, Macaca fascicularis; settings: in vivo
[11] = Drug uptake in anesthetized cynomolgus monkey brain frontal lobe after 35 mins postinjection; format: ADME, organism-based, Macaca fascicularis; settings: in vivo
[12] = Drug uptake in anesthetized cynomolgus monkey brain frontal lobe after 45 mins postinjection; format: ADME, organism-based, Macaca fascicularis; settings: in vivo, 0.75 h
[13] = Drug uptake in anesthetized cynomolgus monkey brain frontal lobe after 75 mins postinjection; format: ADME, organism-based, Macaca fascicularis; settings: in vivo, 1.25 h
[14] = Drug uptake in anesthetized cynomolgus monkey brain frontal lobe after 175 mins postinjection; format: ADME, organism-based, Macaca fascicularis; settings: in vivo
[15] = Ratio of drug uptake in midbrain to cerebellum in anesthetized cynomolgus monkey after 215 mins postinjection; format: ADME, organism-based, Macaca fascicularis; settings: in vivo
[16] = Ratio of drug uptake in pons to cerebellum in anesthetized cynomolgus monkey after 1.5 mins postinjection; format: ADME, organism-based, Macaca fascicularis; settings: in vivo, 0.025 h
[17] = Ratio of drug uptake in occipital lobe to cerebellum in anesthetized cynomolgus monkey after 105 mins postinjection; format: ADME, organism-based, Macaca fascicularis; settings: in vivo, 1.75 h
[18] = Ratio of drug uptake in occipital lobe to cerebellum in anesthetized cynomolgus monkey after 115 mins postinjection; format: ADME, organism-based, Macaca fascicularis; settings: in vivo
[19] = Ratio of drug uptake in occipital lobe to cerebellum in anesthetized cynomolgus monkey after 135 mins postinjection; format: ADME, organism-based, Macaca fascicularis; settings: in vivo, 2.25 h
Putamen [20] = assay: Drug uptake in anesthetized cynomolgus monkey brain putamen after 155 mins postinjection; format: ADME, organism-based, Macaca fascicularis; settings: in vivo
Putamen [21] = assay: Drug uptake in anesthetized cynomolgus monkey brain putamen after 175 mins postinjection; format: ADME, organism-based, Macaca fascicularis; settings: in vivo
Putamen [22] = assay: Drug uptake in anesthetized cynomolgus monkey brain putamen after 215 mins postinjection; format: ADME, organism-based, Macaca fascicularis; settings: in vivo
Thalamus [23] = assay: Drug uptake in anesthetized cynomolgus monkey brain thalamus after 0.5 mins postinjection; format: ADME, organism-based, Macaca fascicularis; settings: in vivo
[24] = Ratio of drug uptake in occipital lobe to cerebellum in anesthetized cynomolgus monkey after 235 mins postinjection; format: ADME, organism-based, Macaca fascicularis; settings: in vivo
[25] = Ratio of drug uptake in occipital lobe to cerebellum in anesthetized cynomolgus monkey after 205 mins postinjection; format: ADME, organism-based, Macaca fascicularis; settings: in vivo
[26] = Ratio of drug uptake in frontal lobe to cerebellum in anesthetized cynomolgus monkey after 125 mins postinjection; format: ADME, organism-based, Macaca fascicularis; settings: in vivo
Midbrain [27] = assay: Drug uptake in anesthetized cynomolgus monkey brain midbrain after 165 mins postinjection; format: ADME, organism-based, Macaca fascicularis; settings: in vivo, 2.75 h
Midbrain [28] = assay: Drug uptake in anesthetized cynomolgus monkey brain midbrain after 235 mins postinjection; format: ADME, organism-based, Macaca fascicularis; settings: in vivo
Pons [29] = assay: Drug uptake in anesthetized cynomolgus monkey brain pons after 3.5 mins postinjection; format: ADME, organism-based, Macaca fascicularis; settings: in vivo
Pons [30] = assay: Drug uptake in anesthetized cynomolgus monkey brain pons after 27.5 mins postinjection; format: ADME, organism-based, Macaca fascicularis; settings: in vivo
Pons [31] = assay: Drug uptake in anesthetized cynomolgus monkey brain pons after 95 mins postinjection; format: ADME, organism-based, Macaca fascicularis; settings: in vivo
Medulla [32] = assay: Drug uptake in anesthetized cynomolgus monkey brain medulla after 205 mins postinjection; format: ADME, organism-based, Macaca fascicularis; settings: in vivo
[33] = Drug uptake in anesthetized cynomolgus monkey brain occipital lobe after 195 mins postinjection; format: ADME, organism-based, Macaca fascicularis; settings: in vivo, 3.25 h
[34] = Ratio of drug uptake in frontal lobe to cerebellum in anesthetized cynomolgus monkey after 205 mins postinjection; format: ADME, organism-based, Macaca fascicularis; settings: in vivo
[35] = Ratio of drug uptake in caudate to cerebellum in anesthetized cynomolgus monkey after 55 mins postinjection; format: ADME, organism-based, Macaca fascicularis; settings: in vivo
[36] = Ratio of drug uptake in caudate to cerebellum in anesthetized cynomolgus monkey after 65 mins postinjection; format: ADME, organism-based, Macaca fascicularis; settings: in vivo
[37] = Ratio of drug uptake in caudate to cerebellum in anesthetized cynomolgus monkey after 155 mins postinjection; format: ADME, organism-based, Macaca fascicularis; settings: in vivo
Medulla [38] = assay: Drug uptake in anesthetized cynomolgus monkey brain medulla after 0.5 mins postinjection; format: ADME, organism-based, Macaca fascicularis; settings: in vivo
Medulla [39] = assay: Drug uptake in anesthetized cynomolgus monkey brain medulla after 18.5 mins postinjection; format: ADME, organism-based, Macaca fascicularis; settings: in vivo
Medulla [40] = assay: Drug uptake in anesthetized cynomolgus monkey brain medulla after 27.5 mins postinjection; format: ADME, organism-based, Macaca fascicularis; settings: in vivo
[41] = Ratio of drug uptake in caudate to cerebellum in anesthetized cynomolgus monkey after 225 mins postinjection; format: ADME, organism-based, Macaca fascicularis; settings: in vivo, 3.75 h
[42] = Ratio of drug uptake in putamen to cerebellum in anesthetized cynomolgus monkey after 75 mins postinjection; format: ADME, organism-based, Macaca fascicularis; settings: in vivo, 1.25 h
[43] = Ratio of drug uptake in putamen to cerebellum in anesthetized cynomolgus monkey after 155 mins postinjection; format: ADME, organism-based, Macaca fascicularis; settings: in vivo
[44] = Drug uptake in anesthetized cynomolgus monkey brain cerebellum after 4.5 mins postinjection; format: ADME, organism-based, Macaca fascicularis; settings: in vivo, 0.075 h
[45] = Drug uptake in anesthetized cynomolgus monkey brain cerebellum after 15.5 mins postinjection; format: ADME, organism-based, Macaca fascicularis; settings: in vivo
Caudate [46] = assay: Drug uptake in anesthetized cynomolgus monkey brain caudate after 0.5 mins postinjection; format: ADME, organism-based, Macaca fascicularis, Caudate nucleus; settings: in vivo
Caudate [47] = assay: Drug uptake in anesthetized cynomolgus monkey brain caudate after 3.5 mins postinjection; format: ADME, organism-based, Macaca fascicularis, Caudate nucleus; settings: in vivo
Caudate [48] = assay: Drug uptake in anesthetized cynomolgus monkey brain caudate after 65 mins postinjection; format: ADME, organism-based, Macaca fascicularis, Caudate nucleus; settings: in vivo
Caudate [49] = assay: Drug uptake in anesthetized cynomolgus monkey brain caudate after 105 mins postinjection; format: ADME, organism-based, Macaca fascicularis, Caudate nucleus; settings: in vivo, 1.75 h
Caudate [50] = assay: Drug uptake in anesthetized cynomolgus monkey brain caudate after 115 mins postinjection; format: ADME, organism-based, Macaca fascicularis, Caudate nucleus; settings: in vivo
Caudate [51] = assay: Drug uptake in anesthetized cynomolgus monkey brain caudate after 125 mins postinjection; format: ADME, organism-based, Macaca fascicularis, Caudate nucleus; settings: in vivo
[52] = Ratio of drug uptake in occipital lobe to cerebellum in anesthetized cynomolgus monkey after 0.5 mins postinjection; format: ADME, organism-based, Macaca fascicularis; settings: in vivo
Thalamus [53] = assay: Drug uptake in anesthetized cynomolgus monkey brain thalamus after 22.5 mins postinjection; format: ADME, organism-based, Macaca fascicularis; set-up: unit not given here; settings: in vivo, 0.375 h
Putamen [54] = assay: Drug uptake in anesthetized cynomolgus monkey brain putamen after 105 mins postinjection; format: ADME, organism-based, Macaca fascicularis; set-up: unit not given here; settings: in vivo, 1.75 h
Thalamus [55] = assay: Drug uptake in anesthetized cynomolgus monkey brain thalamus after 65 mins postinjection; format: ADME, organism-based, Macaca fascicularis; set-up: unit not given here; settings: in vivo
Thalamus [56] = assay: Drug uptake in anesthetized cynomolgus monkey brain thalamus after 145 mins postinjection; format: ADME, organism-based, Macaca fascicularis; set-up: unit not given here; settings: in vivo
Midbrain [57] = assay: Drug uptake in anesthetized cynomolgus monkey brain midbrain after 0.5 mins postinjection; format: ADME, organism-based, Macaca fascicularis; set-up: unit not given here; settings: in vivo
Midbrain [58] = assay: Drug uptake in anesthetized cynomolgus monkey brain midbrain after 4.5 mins postinjection; format: ADME, organism-based, Macaca fascicularis; set-up: unit not given here; settings: in vivo, 0.075 h
Midbrain [59] = assay: Drug uptake in anesthetized cynomolgus monkey brain midbrain after 9.5 mins postinjection; format: ADME, organism-based, Macaca fascicularis; set-up: unit not given here; settings: in vivo
Midbrain [60] = assay: Drug uptake in anesthetized cynomolgus monkey brain midbrain after 12.5 mins postinjection; format: ADME, organism-based, Macaca fascicularis; set-up: unit not given here; settings: in vivo
Midbrain [61] = assay: Drug uptake in anesthetized cynomolgus monkey brain midbrain after 18.5 mins postinjection; format: ADME, organism-based, Macaca fascicularis; set-up: unit not given here; settings: in vivo
Midbrain [62] = assay: Drug uptake in anesthetized cynomolgus monkey brain midbrain after 27.5 mins postinjection; format: ADME, organism-based, Macaca fascicularis; set-up: unit not given here; settings: in vivo
Midbrain [63] = assay: Drug uptake in anesthetized cynomolgus monkey brain midbrain after 35 mins postinjection; format: ADME, organism-based, Macaca fascicularis; set-up: unit not given here; settings: in vivo
Midbrain [64] = assay: Drug uptake in anesthetized cynomolgus monkey brain midbrain after 55 mins postinjection; format: ADME, organism-based, Macaca fascicularis; set-up: unit not given here; settings: in vivo
Midbrain [65] = assay: Drug uptake in anesthetized cynomolgus monkey brain midbrain after 125 mins postinjection; format: ADME, organism-based, Macaca fascicularis; set-up: unit not given here; settings: in vivo
[66] = Ratio of drug uptake in midbrain to cerebellum in anesthetized cynomolgus monkey after 135 mins postinjection; format: ADME, organism-based, Macaca fascicularis; settings: in vivo, 2.25 h

O=C(OCC[18F])C1C2CCC(CC1c1cccc(/C=C\Br)c1)N2 (stereo unspecified)
Ratio [1]: 1.1
Ratio [2]: 1.4
Ratio [3]: 1.6
Ratio [4]: 1.9
Ratio [5]: 1.4
Drug uptake [6]: 0.36
Drug uptake [7]: 0.64
Drug uptake [8]: 0.22
Drug uptake [9]: 0.62
Drug uptake [10]: 1.75
Drug uptake [11]: 2.78
Drug uptake [12]: 2.85
Drug uptake [13]: 2.86
Drug uptake [14]: 2.19
Ratio [15]: 2.1
Ratio [16]: 1.6
Ratio [17]: 1.1
Ratio [18]: 1.1
Ratio [19]: 1.1
Drug uptake (Putamen [20]): 4.01
Drug uptake (Putamen [21]): 3.76
Drug uptake (Putamen [22]): 3.24
Drug uptake (Thalamus [23]): 0
Ratio [24]: 1.2
Ratio [25]: 1.3
Ratio [26]: 1
Drug uptake (Midbrain [27]): 4.28
Drug uptake (Midbrain [28]): 3.76
Drug uptake (Pons [29]): 0.82
Drug uptake (Pons [30]): 4.1
Drug uptake (Pons [31]): 4.36
Drug uptake (Medulla [32]): 3.14
Drug uptake [33]: 2.02
Ratio [34]: 1.1
Ratio [35]: 1.1
Ratio [36]: 1.2
Ratio [37]: 1.6
Drug uptake (Medulla [38]): 0
Drug uptake (Medulla [39]): 4.39
Drug uptake (Medulla [40]): 4.57
Ratio [41]: 1.8
Ratio [42]: 1.5
Ratio [43]: 1.8
Drug uptake [44]: 1.76
Drug uptake [45]: 3.57
Drug uptake (Caudate [46]): 0
Drug uptake (Caudate [47]): 0.63
Drug uptake (Caudate [48]): 4.08
Drug uptake (Caudate [49]): 4.01
Drug uptake (Caudate [50]): 4.06
Drug uptake (Caudate [51]): 3.75
Ratio [52]: 1.6
Drug uptake (Thalamus [53]): 3.43
Drug uptake (Putamen [54]): 4.82
Drug uptake (Thalamus [55]): 4.51
Drug uptake (Thalamus [56]): 3.86
Drug uptake (Midbrain [57]): 0.01
Drug uptake (Midbrain [58]): 1.76
Drug uptake (Midbrain [59]): 3.41
Drug uptake (Midbrain [60]): 3.83
Drug uptake (Midbrain [61]): 4.16
Drug uptake (Midbrain [62]): 4.53
Drug uptake (Midbrain [63]): 4.68
Drug uptake (Midbrain [64]): 4.98
Drug uptake (Midbrain [65]): 4.73
Ratio [66]: 1.9
